Test system: T1, MpIspS
T1 construct: gene IspS
Conditions: 50 mM MOPS pH 6.0, 5 mM Mn^2+, 50 °C, 10 min; fit below 15 mM DMAPP

CC(C)=CCOP(=O)(O)OP(=O)(O)O [DMAPP]
Km: 8.11 mM

Reference: paper PMC6003189, “Molecular and biochemical characterization of a novel isoprene synthase from Metrosideros polymorpha” (BMC Plant Biology, 2018)
